Laboratory results: US20110176998A1, “IMAGING AND THERAPY OF VIRUS-ASSOCIATED TUMORS” (THE JOHNS HOPKINS UNIVERSITY, priority 2007, published 2011)
“Also recorded” adds a separate entry of the source. Like-named read-outs stand apart in the source and are kept apart here.

Assays:
[1] = tested on: Zta promoter; assay type: cell-based, Epstein-Barr virus; details: for Zta promoter luciferase activity / induction of BZLF1 promoter: AGS cells; for known lytic inducer re-identified / hit in epithelial promoter reporter assay: library screen at 10 uM
[2] = tested on: CMV promoter driven GFP in Hela cells
[3] = tested on: recombinant EBV encoding GFP (BX-1) in AKATA-BX1 cells; experiment: GFP whole virus assay in AKATA-BX1 cells; details: for GFP signal: AKATA-BX1 cells
[4] = tested on: EBV-TK; experiment: immunoblot for EBV-TK expression; assay type: cell-based, Epstein-Barr virus; details: Rael cells; immunoblot
Procedure: To detect expression of the EBV-TK or EBV-ZTA, total cell protein was first extracted by treating cells with lysis buffer (0.05 M Tris, pH 7.6, 0.15 M NaCl, 1% triton-X 100, 2 mM EDTA) containing protease inhibitors for 10 minutes at 4° C. The following reagents were added to 1 mL of lysis buffer: 2 μL leupeptin (5 mg/mL), 1 μL 0.2 M Na3VO4, 1 μL NaF, 1 μL aprotinin (10 mg/ml), 1 μL, pepstatin (2 mM), and 10 μL PMSF (100 mM) for 10 minutes at 4° C. Following centrifugation, the supernatant was collected and stored at −80° C. Protein concentration was determined with the BCA Protein Assay Kit (Pierce, Rockford, Ill.) according to the manufacturer's instructions. A 10 μg aliquot of total cellular protein was fractionated on a 7.5% SDS-polyacrylamide gel. Proteins were transferred to PROTRAN nitrocellulose membrane (Schleicher & Schuell, Keene, N.H.). The membranes were blocked with 5% blotting grade non-fat dry milk (Bio-rad, Hercules, Calif.) in PBS with 0.1% TWEEN-20 (PBS-T) at 4° C. overnight. […] The membranes were washed twice and proteins were detected with ECL Western Blotting Detection reagents (Amersham Pharmacia Biotech). […]

[5] = tested on: EBV(+) Burkitt's lymphoma (Rael); experiment: tumor growth, EBV(+) Burkitt's lymphoma (Rael) xenografts; assay type: in vivo, SCID mice; details: bortezomib without [131I]FIAU
Procedure: Therefore, an evaluation of a therapeutic isotope was carried out. As described above, SCID mice engrafted with EBV Burkitt's lymphoma xenografts received either buffer or bortezomib followed the next day by treatment with [^131I]FIAU or no treatment. […] Thus, bortezomib allowed targeting of [^131I]FIAU with therapeutic effect. Other proteasome inhibitors are also likely to be active. Several are in clinical trial.
Biostatistics. Linear regression and curve fitting were undertaken carried using GraphPad Prism software version 5.00 for Windows, GraphPad Software, San Diego Calif. USA, www.graphpad.com.

[6] = tested on: EBV viral DNA copy number; experiment: real-time PCR for EBV viral DNA copy number (viral replication); assay type: cell-based, Epstein-Barr virus; details: for lytic protein expression or viral replication: B cells or gastric epithelial cells (SNU 719)
Procedure: Genomic DNA from treated cells were extracted with the QIAamp DNA mini kit (Qiagen, CA) according to the manufacturer's instructions. PCRs were set up in a volume of 50 μL with a TaqMan PCR core reagent kit (Perkin-Elmer Corp., Branchburg, N.J.). Fluorescent probes were custom synthesized by Perkin-Elmer Applied Biosystems. PCR primers were synthesized by Gibco BRL (Frederick, Md.). Each reaction contained 5 μL of 10× buffer A (4 mM MgCl2), amplification primers (300 nM), fluorescent probe (25 nM), dATP, dCTP, and dGTP (200 μM each), dUTP (400 uM), 1.25 U of AmpliTaq Gold, and 0.5 U of AmpErase uracil N-glycosylase. Extracted genomic DNA was used for amplification. DNA amplification was carried out in a 96-well reaction plate in a Perkin-Elmer Applied Biosystems 7700 sequence detector. Each sample was analyzed in duplicate, and multiple negative water blanks were included in each analysis. A calibration curve was run in parallel and in duplicate with each analysis, with DNA extracted from the EBV-positive cell line Namalwa as a standard.
The EBV genome was quantified by real-time PCR with the ICycler system (Biorad, Hercules, Calif.). Template DNA was extracted with a mini blood DNA Kit (Qiagen, Valencia, Calif.). […]. A calibration curve was run in parallel and in duplicate with each analysis, using DNA extracted from the diploid EBV-positive cell line Namalwa containing two integrated viral genomes per cell as a standard. Amplification data were collected with an MyiQ single color real-time PCR Detector (Biorad) and analyzed with the MyiQ software developed by Biorad.

[7] = tested on: BZLF1 protein (ZTA); experiment: Western blot / immunoblot for ZTA (BZLF1 protein) in EBV positive cell lines; assay type: cell-based, Epstein-Barr virus; details: for BZLF protein expression: SNU719, AKATA, Raji, LCL and Rael cells
Procedure: To detect expression of the EBV-TK or EBV-ZTA, total cell protein was first extracted by treating cells with lysis buffer (0.05 M Tris, pH 7.6, 0.15 M NaCl, 1% triton-X 100, 2 mM EDTA) containing protease inhibitors for 10 minutes at 4° C. The following reagents were added to 1 mL of lysis buffer: 2 μL leupeptin (5 mg/mL), 1 μL 0.2 M Na3VO4, 1 μL NaF, 1 μL aprotinin (10 mg/ml), 1 μL, pepstatin (2 mM), and 10 μL PMSF (100 mM) for 10 minutes at 4° C. Following centrifugation, the supernatant was collected and stored at −80° C. Protein concentration was determined with the BCA Protein Assay Kit (Pierce, Rockford, Ill.) according to the manufacturer's instructions. A 10 μg aliquot of total cellular protein was fractionated on a 7.5% SDS-polyacrylamide gel. Proteins were transferred to PROTRAN nitrocellulose membrane (Schleicher & Schuell, Keene, N.H.). The membranes were blocked with 5% blotting grade non-fat dry milk (Bio-rad, Hercules, Calif.) in PBS with 0.1% TWEEN-20 (PBS-T) at 4° C. overnight. The membranes were then washed with PBS-T twice followed by incubation with 1/1,000-diluted rabbit anti-TK sera from a rabbit immunized with a synthetic EBV-TK peptide ([…]) or anti-ZTA monoclonal antibody (Argene, North Massapequa, N.Y.) at room temperature for 1 hour. After washing, the membranes were incubated with HRP-conjugated goat anti-rabbit IgG antibodies or HRP-conjugated goat anti-mouse IgG antibodies (Amersham Pharmacia Biotech, Piscataway, N.J.) at a 1/5,000 dilution in PBS-T at room temperature for 1 hour. The membranes were washed twice and proteins were detected with ECL Western Blotting Detection reagents (Amersham Pharmacia Biotech). The membranes were exposed to X-OMAT film (Kodak, Rochester, N.Y.) at room temperature.
For lytic induction studies, cells were seeded at 10^6/ml, and treated with test compounds for 48 hours. Control untreated cells were incubated in parallel.
Cells were washed with PBS twice. Total cellular protein was extracted with lysis buffer. Proteins were electrophoresed in polyacrylamide and then transferred onto a PROTRAN nitrocellulose membrane (Schleicher&Schuell, Keene, N.H.). Blots were probed with primary antibody (Ab) overnight at 4° C. HRP-conjugated secondary Ab was added after washing and detected by an enhanced chemiluminescence system (ECL) (Amersham). The following antibodies were used: anti-ZTA (Argene), anti-f3-actin (Sigma), anti-mouse (Sigma).

[8] = tested on: EBV(+) Akata cells; experiment: entry of EBV(+) Akata cells into the lytic cycle; details: 20 nM, 48 hours
[9] = tested on: EBV-TK functional activity in Burkitt's lymphoma cell lines; experiment: in vitro [14C]FIAU cell uptake after bortezomib; assay type: cell-based, Epstein-Barr virus
Procedure: For in vitro [^14C]FIAU uptake studies, cells were seeded at 5×10^5 cells/mL and incubated with 10 nM bortezomib at 37° C. for 6-12 hrs. They were washed and then incubated with 0.04 μCi/mL [^14C]FIAU at 37° C. for 2, 4, 8, 24, 48, 72 hours. Cells were pelleted by centrifugation and washed with unlabeled FIAU. Radioactivity of the isolated cells and pooled medium with washes were then counted separately by scintillation counting with a Beckman Coulter LS5000TA scintillation counter (Fullerton, Calif.). Total cellular protein was extracted by incubating in lysis buffer (0.05 M Tris, pH 7.6, 0.15 M NaCl, 1% triton-X 100, 2 mM EDTA) and cell debris were removed by centrifugation. The supernatant was collected and the protein concentration was determined with the BCA protein assay kit (Pierce, Rockford, Ill.) according to the manufacturer's instructions. Cell uptake was expressed as the accumulation ratio, that is, the counts per minute per gram (cpm/g) of cells divided by the cpm/g (mL) of medium.

[10] = administered to patients for imaging; cited from earlier work

CCCCCCCCCCCCCC(=O)O[C@@H]1[C@@H](C)[C@@]2(O)[C@@H](C=C(CO)C[C@]3(O)C(=O)C(C)=C[C@@H]23)[C@@H]2C(C)(C)[C@]12OC(C)=O [TPA, phorbol 12-tetradecanoate 13-acetate]
Zta promoter luciferase activity [1]: activated
GFP signal in control cell line [2]: not activated

COc1cccc2c1C(=O)c1c(O)c3c(c(O)c1C2=O)C[C@@](O)(C(=O)CO)C[C@@H]3O[C@H]1C[C@H](N)[C@H](O)[C@H](C)O1 [Doxorubicin]
known lytic inducer re-identified / hit in epithelial promoter reporter assay [1]: verified
known lytic inducer re-identified / hit in lymphoma cell line/whole virus assay ([3]; library screen at 10 uM): verified

CCCC(=O)O [butyrate]
Zta promoter luciferase activity [1]: activated

CC(C)C[C@H](NC(=O)[C@H](Cc1ccccc1)NC(=O)c1cnccn1)B(O)O [Bortezomib]
EBV-TK expression [4]: induced
Zta promoter luciferase activity [1]: increases in a bortezomib dose-dependent manner
induction of BZLF1 promoter ([1]; 10 nM): induced
known lytic inducer re-identified / hit in epithelial promoter reporter assay [1]: most prominent hit
EC50 for inducing lytic infection ([1]; luciferase assay): nanomolar scale
tumor growth [5]: slowed tumor growth
increase of EBV viral DNA copy number ([6]; Rael cells, 20 nM for 8 hours, DNA collected after 48 hours): 20 fold
viral copy number ([6]; real time DNA PCR, Rael): increased
ZTA expression ([7]; Rael cells): induced
cells entered the lytic cycle [8]: 67%
GFP signal [3]: dose dependent
GFP signal ([3]; 10 nM): induced GFP signal
EC50 for inducing lytic infection ([3]; GFP assay): nanomolar scale
known lytic inducer re-identified / hit in lymphoma cell line/whole virus assay ([3]; library screen at 10 uM): most prominent hit

Arginine butyrate
known lytic inducer re-identified / hit in epithelial promoter reporter assay [1]: missed
known lytic inducer re-identified / hit in lymphoma cell line/whole virus assay ([3]; library screen at 10 uM): missed

Nc1ncn([C@H]2C[C@H](O)[C@@H](CO)O2)c(=O)n1 [5′-azadeoxycytidine, 5-Aza-2′-deoxycytidine]
Zta promoter luciferase activity [1]: did not activate; also recorded: not activated
GFP signal in control cell line [2]: not activated
GFP signal [3]: induced

COc1ccc(C=CC(=O)Nc2ccccc2C(=O)O)cc1OC [Tranilast, N-(3,4-dimethoxycinnamoyl)anthranilic acid]
lytic protein expression or viral replication [6]: don't induce
BZLF protein expression [7]: did not induce

CCCC(CCC)C(=O)O [valproate]
Zta promoter luciferase activity [1]: activated
Zta promoter luciferase activity ([1]; listed as valproic acid): increased expression of luciferase in a dose-dependent manner

CCCC(=O)[O-].[Na+] [Sodium butyrate]
known lytic inducer re-identified / hit in epithelial promoter reporter assay [1]: missed
known lytic inducer re-identified / hit in lymphoma cell line/whole virus assay ([3]; library screen at 10 uM): missed

CC[C@H](C)C(=O)O[C@H]1C[C@@H](C)C=C2C=C[C@H](C)[C@H](CC[C@@H]3C[C@@H](O)CC(=O)O3)[C@H]21 [lovastatin]
suppression hits in GFP whole virus assay ([3]; library screen at 10 uM, picked after day 10): suppression hits

N.N.[Cl][Pt][Cl] [cis-platinum]
known lytic inducer re-identified / hit in epithelial promoter reporter assay [1]: verified

[Cl][Co][Cl] [Cobalt chloride]
known lytic inducer re-identified / hit in epithelial promoter reporter assay [1]: missed
known lytic inducer re-identified / hit in lymphoma cell line/whole virus assay ([3]; library screen at 10 uM): missed

O=c1[nH]cc(F)c(=O)[nH]1 [5-FU]
known lytic inducer re-identified / hit in epithelial promoter reporter assay [1]: verified

CC(=O)O[C@H]1C(=O)[C@@]2(C)[C@H]([C@H](OC(=O)c3ccccc3)[C@]3(O)C[C@H](OC(=O)[C@H](O)[C@@H](NC(=O)c4ccccc4)c4ccccc4)C(C)=C1C3(C)C)[C@]1(OC(C)=O)CO[C@@H]1C[C@@H]2O [Taxol]
known lytic inducer re-identified / hit in epithelial promoter reporter assay [1]: verified

CC(C(=O)O)c1ccc(N2Cc3ccccc3C2=O)cc1 (stereo not shown) [Indoprofen]
induction of BZLF1 promoter ([1]; 10 μM): can induce
EBV viral replication ([6]; SNU719 cells): not viral replication; also recorded: did not induce
ZTA expression ([7]; SNU719 cells, high dose): induced

CN(Cc1cnc2nc(N)nc(N)c2n1)c1ccc(C(=O)N[C@@H](CCC(=O)O)C(=O)O)cc1 [Methotrexate]
known lytic inducer re-identified / hit in epithelial promoter reporter assay [1]: verified

Cc1oncc1C(=O)Nc1ccc(C(F)(F)F)cc1 [Leflunomide, N-(4′-trifluoromethylphenyl)-5-methylisoxazole-4-carboxamide]
lytic protein expression or viral replication [6]: don't induce
BZLF protein expression [7]: did not induce

CC(C)[C@H](CO)Nc1nc(Nc2cccc(Cl)c2)c2ncn(C(C)C)c2n1 [Purvalanol A]
inhibition of EBV immediate early gene ZTA expression ([7]; AKATA-BX1, anti-IgG induction): inhibited
inhibition of GFP signal after lytic induction ([3]; AKATA-BX1 cells induced with anti-IgG): specifically inhibited

CCCCCCCCCCCCCC(=O)O[C@@H]1[C@@H](C)[C@@]2(O)[C@@H](C=C(CO)C[C@]3(O)C(=O)C(C)=C[C@@H]23)[C@@H]2C(C)(C)[C@]12OC(C)=O [PMA]
known lytic inducer re-identified / hit in epithelial promoter reporter assay [1]: verified
known lytic inducer re-identified / hit in lymphoma cell line/whole virus assay ([3]; library screen at 10 uM): verified

O=c1[nH][14c](=O)n([C@@H]2O[C@H](CO)[C@@H](O)[C@@H]2F)cc1I [[^14C]FIAU, [2-^14C]2′-Fluoro-2′-deoxy-β-D-5-iodouracil-arabinofuranoside]
accumulation of [14C]FIAU ([9]; EBV(+) Akata and EBV(+) Rael cells following treatment with bortezomib): increased
accumulation of [14C]FIAU ([9]; EBV(−) Akata cells following treatment with bortezomib): not

O=c1[nH]c(=O)n([C@@H]2O[C@H](CO)[C@@H](O)[C@@H]2F)cc1[125I] [[^124I]FIAU, 2′-fluoro-2′deoxy-1-beta-D-arabinofuranosyl-5-iodo-uracil]
effect on hepatic function [10]: without any adverse effect on hepatic function
